Assay [1] addresses T1, Ba/F3-KDR-transfected cells (Homo sapiens, UniProt P35968).
T1 construct: BAF3-KDR (MIN IL3) pIC50; other: minus IL3
The assay can be described thus: Ba/F3-KDR (minus IL3) cellular proliferation assay, Alamar Blue. The class given is cell-based. As for the experimental part:
Ba/F3-KDR (Minus IL3 or Plus IL3) (Cellular Proliferation Assay)
(§1) In a 384 well plate, 100 n1 of compound dilution in DMSO was sprayed before adding 50 μl cell culture medium (phenol red free RPMI-1640, 10% FBS, 2 mM L-Glutamine and 50 μg/ml Gentamycin) containing 20000 cells per well of Ba/F3-KDR-transfected cells. Cells were put in an incubator at 37° C. and 5% CO2. After 24 hours, 10 μl of Alamar Blue solution (0.5 mM K3Fe(CN)6, 0.5 mM K4Fe(CN)6, 0.15 mM Resazurin and 100 mM Phosphate Buffer) was added to the wells, incubated for 4 hours at 37° C. and 5% CO2 before RFU's (Relative Fluorescence Units) (ex. 540 nm., em. 590 nm.) were measured in a fluororescence plate reader. […]
(Resazurin is reduced to fluorescent resorufin, in cell work by metabolically active cells.)

The target in assay [2] is Ba/F3-FGFR4-transfected cells (Homo sapiens, UniProt P22455). The assay is described as follows: Ba/F3-FGFR4 cellular proliferation assay, Alamar Blue. The class given is cell-based. The procedure: Ba/F3-FGFR4 (Cellular Proliferation Assay)
(§2) In a 384 well plate, 100 n1 of compound dilution in DMSO was sprayed before adding 50 μl cell culture medium (phenol red free RPMI-1640, 10% FBS, 2 mM L-Glutamine and 50 μg/ml Gentamycin) containing 20000 cells per well of Ba/F3-FGFR4-transfected cells. Cells were put in an incubator at 37° C. and 5% CO2. After 24 hours, 10 μl of Alamar Blue solution (0.5 mM K3Fe(CN)6, 0.5 mM K4Fe(CN)6, 0.15 mM Resazurin and 100 mM Phosphate Buffer) was added to the wells, incubated for 4 hours at 37° C. and 5% CO2 before RFU's (Relative Fluorescence Units) (ex. 540 nm., em. 590 nm.) were measured in a fluororescence plate reader.

The target of assay [3] is KDR (h) (Homo sapiens, UniProt P35968). The assay is described as follows: KDR (VEGFR2) (enzymatic assay), TR-FRET. The assay is classed as biochemical. Conditions: average values if tested multiple times, read-out: VEGFR 2 (KDR) pIC50 (converted). The procedure: KDR (VEGFR2) (Enzymatic Assay)
In a final reaction volume of 30 μL, KDR (h) (150 ng/ml) was incubated with 50 mM HEPES pH 7.5, 6 mM MnCl2, 1 mM DTT, 0.1 mM Na3VO4, 0.01% Triton-X-100, 500 nM Btn-Flt3 and 3 μM ATP in the presence of compound (1% DMSO final). After incubation for 120 minutes at room temperature the reaction was stopped with 2.27 nM EU-anti P-Tyr, 7 mM EDTA, 31.25 nM SA-XL-665 and 0.02% BSA which was present for 60 minutes at room temperature. Time-Resolved Fluorescence Resonance Energy Transfer (TR-FRET) signal (ex340 nm. Em 620 nm, em 655 nm) was measured afterwards and results are expressed in RFU (Relative Fluorescence Units).
For orientation: In TR-FRET formats the signal depends on donor and acceptor labels being close together.

The target in assay [4] is T2, Ba/F3-FGFR3-transfected cells (Homo sapiens, UniProt P22607).
T2 construct: BAF3-FGFR3 (MIN IL3) pIC50; other: minus IL3
The assay is described as follows: Ba/F3-FGFR3 (minus IL3) cellular proliferation assay, Alamar Blue. The class given is cell-based. As for the experimental part:
(§3) Ba/F3-FGFR3 (Minus IL3 or Plus IL3) (Cellular Proliferation Assay)
as §1, with “nl” for “n1”, “Ba/F3-FGFR3-transfected” for “Ba/F3-KDR-transfected”

Assay [5] has as its target FGFR4 (h) (Homo sapiens, UniProt P22455). The assay is described as follows: FGFR4 (enzymatic assay), TR-FRET. The assay is classed as biochemical. Conditions: FGFR 4 pIC50, enzymatic assay; average values if tested multiple times.
Assay [6] addresses FGFR3 (h) (Homo sapiens, UniProt P22607). The assay is described as follows: FGFR3 (enzymatic assay), TR-FRET. The assay is classed as biochemical. Conditions: average values if tested multiple times, read-out: FGFR 3 pIC50 (converted). From the text:
Time-Resolved Fluorescence Resonance Energy Transfer (TR-FRET) signal (ex340 nm.

The target of assay [7] is FGFR1 (h) (Homo sapiens, UniProt P11362). The assay is described as follows: FGFR1 (enzymatic assay), TR-FRET. Conditions: average values if tested multiple times, read-out: FGFR 1 pIC50 (converted). The assay is classed as biochemical.
Assay [8] deals with T3, Ba/F3-FGFR1-transfected cells (Homo sapiens, UniProt P11362).
T3 construct: BAF3-FGFR1 (MIN IL3) pIC50; other: minus IL3
The assay is described as follows: Ba/F3-FGFR1 (minus IL3) cellular proliferation assay, Alamar Blue. The assay is classed as cell-based. As for the experimental part: (§4) Ba/F3-FGFR1 (Minus IL3 or Plus IL3) (Cellular Proliferation Assay)
as §2, with “nl” for “n1”, “Ba/F3-FGFR1-transfected” for “Ba/F3-FGFR4-transfected”

Assay [9] relates to Ba/F3-FGFR1-transfected cells. The assay is described as follows: Ba/F3-FGFR1 (plus IL3) cellular proliferation assay, counterscreen with 10 ng/ml murine IL3. The class given is cell-based. Conditions: read-out: BAF3-FGFR1 (PLUS IL3) pIC50 (converted). The procedure: as §4
as §2, with “nl” for “n1”, “Ba/F3-FGFR1-transfected” for “Ba/F3-FGFR4-transfected”
(§5) As a counterscreen the same experiment was performed in the presence of 10 ng/ml murine IL3.

For assay [10], the system named is Ba/F3-FGFR3-transfected cells. The assay can be described thus: Ba/F3-FGFR3 (plus IL3) cellular proliferation assay, counterscreen with 10 ng/ml murine IL3. The assay is classed as cell-based. Conditions: read-out: BAF3-FGFR3 (PLUS IL3) pIC50 (converted). The procedure:
as §3
as §2, with “nl” for “n1”, “Ba/F3-FGFR3-transfected” for “Ba/F3-FGFR4-transfected”
as §5
On the technique in general: A counterscreen serves to expose hits that act by an unwanted route or on another target.

Assay [11] addresses FGFR2 (h) (Homo sapiens, UniProt P21802). The assay is described as follows: FGFR2 (enzymatic assay), TR-FRET. The assay is classed as biochemical. Conditions: average values if tested multiple times. The procedure: In a final reaction volume of 30 μL, FGFR2 (h) (150 ng/ml) was incubated with 50 mM HEPES pH 7.5, 6 mM MnCl2, 1 mM DTT, 0.1 mM Na3VO4, 0.01% Triton-X-100, 500 nM Btn-Flt3 and 0.4 μM ATP in the presence of compound (1% DMSO final).

Where [12] appears, read: enzymatic assay, read-out: FGFR 2 pIC50 (converted).
The mark [13] stands for this setting: plus IL3 (10 ng/ml murine IL3, counterscreen).

Structures are written as SMILES. Read-outs that look alike come from different tables or passages of the source.

Chain of FGFR2 (h) (P21802 22-821): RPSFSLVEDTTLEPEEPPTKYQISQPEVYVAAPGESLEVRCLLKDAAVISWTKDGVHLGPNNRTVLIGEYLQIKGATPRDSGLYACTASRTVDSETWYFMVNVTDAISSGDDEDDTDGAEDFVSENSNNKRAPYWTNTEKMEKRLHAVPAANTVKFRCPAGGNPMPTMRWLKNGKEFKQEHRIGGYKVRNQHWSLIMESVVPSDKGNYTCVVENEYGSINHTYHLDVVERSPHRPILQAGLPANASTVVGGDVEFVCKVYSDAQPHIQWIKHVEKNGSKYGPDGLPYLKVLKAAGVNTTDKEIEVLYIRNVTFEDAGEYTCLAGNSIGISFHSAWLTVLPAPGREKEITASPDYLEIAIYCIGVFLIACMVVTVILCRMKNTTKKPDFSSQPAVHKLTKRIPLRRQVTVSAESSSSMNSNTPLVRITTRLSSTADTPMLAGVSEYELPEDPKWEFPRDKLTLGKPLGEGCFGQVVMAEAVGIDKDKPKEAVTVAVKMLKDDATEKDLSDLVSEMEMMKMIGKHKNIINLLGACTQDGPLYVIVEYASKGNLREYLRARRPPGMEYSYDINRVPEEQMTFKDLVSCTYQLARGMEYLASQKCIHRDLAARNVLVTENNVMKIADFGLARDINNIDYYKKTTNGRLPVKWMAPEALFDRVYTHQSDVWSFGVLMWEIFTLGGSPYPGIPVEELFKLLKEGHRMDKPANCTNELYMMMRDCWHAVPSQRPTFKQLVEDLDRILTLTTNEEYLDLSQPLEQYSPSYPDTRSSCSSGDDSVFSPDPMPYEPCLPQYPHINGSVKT
Chain of FGFR4 (h) (P22455 22-802): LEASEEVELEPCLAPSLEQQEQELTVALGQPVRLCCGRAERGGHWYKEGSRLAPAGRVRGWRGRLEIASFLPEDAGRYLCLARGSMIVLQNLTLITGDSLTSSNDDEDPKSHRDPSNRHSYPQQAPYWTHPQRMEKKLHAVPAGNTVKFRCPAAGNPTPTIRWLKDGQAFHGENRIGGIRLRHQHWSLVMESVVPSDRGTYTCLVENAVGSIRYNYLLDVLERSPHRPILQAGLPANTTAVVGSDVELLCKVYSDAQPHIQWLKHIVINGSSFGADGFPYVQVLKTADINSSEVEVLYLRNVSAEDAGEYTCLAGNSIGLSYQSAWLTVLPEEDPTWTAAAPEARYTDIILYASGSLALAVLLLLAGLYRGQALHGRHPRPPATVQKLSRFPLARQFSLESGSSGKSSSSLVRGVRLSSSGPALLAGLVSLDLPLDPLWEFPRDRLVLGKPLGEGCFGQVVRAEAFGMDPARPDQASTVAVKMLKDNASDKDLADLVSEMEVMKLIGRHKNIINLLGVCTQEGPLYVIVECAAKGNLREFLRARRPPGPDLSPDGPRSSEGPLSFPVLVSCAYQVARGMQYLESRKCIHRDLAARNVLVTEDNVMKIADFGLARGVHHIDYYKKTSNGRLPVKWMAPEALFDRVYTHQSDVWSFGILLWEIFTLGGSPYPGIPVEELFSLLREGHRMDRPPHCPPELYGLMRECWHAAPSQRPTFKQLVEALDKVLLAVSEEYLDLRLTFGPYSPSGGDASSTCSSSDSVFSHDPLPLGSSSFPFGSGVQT
Chain of Ba/F3-FGFR4-transfected cells (P22455 whole entry, change not shown): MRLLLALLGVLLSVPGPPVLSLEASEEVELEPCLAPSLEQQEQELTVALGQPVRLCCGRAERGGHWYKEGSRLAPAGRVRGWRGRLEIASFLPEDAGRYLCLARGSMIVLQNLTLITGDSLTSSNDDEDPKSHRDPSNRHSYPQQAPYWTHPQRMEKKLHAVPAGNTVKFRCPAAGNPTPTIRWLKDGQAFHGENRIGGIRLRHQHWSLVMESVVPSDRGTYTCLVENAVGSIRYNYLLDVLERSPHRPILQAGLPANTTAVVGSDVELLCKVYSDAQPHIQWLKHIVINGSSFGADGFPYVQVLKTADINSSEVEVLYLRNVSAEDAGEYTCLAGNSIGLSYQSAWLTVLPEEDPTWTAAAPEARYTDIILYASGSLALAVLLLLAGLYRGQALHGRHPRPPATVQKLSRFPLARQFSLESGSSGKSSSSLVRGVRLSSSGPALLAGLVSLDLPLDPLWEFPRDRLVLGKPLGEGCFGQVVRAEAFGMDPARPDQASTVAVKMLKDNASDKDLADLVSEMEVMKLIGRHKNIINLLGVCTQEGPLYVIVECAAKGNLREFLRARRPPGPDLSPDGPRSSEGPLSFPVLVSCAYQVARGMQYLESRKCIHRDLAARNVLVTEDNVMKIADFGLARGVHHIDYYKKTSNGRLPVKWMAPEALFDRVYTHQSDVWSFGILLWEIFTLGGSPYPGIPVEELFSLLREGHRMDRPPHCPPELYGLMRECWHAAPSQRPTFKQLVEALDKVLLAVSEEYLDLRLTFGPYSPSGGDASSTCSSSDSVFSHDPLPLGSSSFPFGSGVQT
T1 sequence (P35968 whole entry, change not shown): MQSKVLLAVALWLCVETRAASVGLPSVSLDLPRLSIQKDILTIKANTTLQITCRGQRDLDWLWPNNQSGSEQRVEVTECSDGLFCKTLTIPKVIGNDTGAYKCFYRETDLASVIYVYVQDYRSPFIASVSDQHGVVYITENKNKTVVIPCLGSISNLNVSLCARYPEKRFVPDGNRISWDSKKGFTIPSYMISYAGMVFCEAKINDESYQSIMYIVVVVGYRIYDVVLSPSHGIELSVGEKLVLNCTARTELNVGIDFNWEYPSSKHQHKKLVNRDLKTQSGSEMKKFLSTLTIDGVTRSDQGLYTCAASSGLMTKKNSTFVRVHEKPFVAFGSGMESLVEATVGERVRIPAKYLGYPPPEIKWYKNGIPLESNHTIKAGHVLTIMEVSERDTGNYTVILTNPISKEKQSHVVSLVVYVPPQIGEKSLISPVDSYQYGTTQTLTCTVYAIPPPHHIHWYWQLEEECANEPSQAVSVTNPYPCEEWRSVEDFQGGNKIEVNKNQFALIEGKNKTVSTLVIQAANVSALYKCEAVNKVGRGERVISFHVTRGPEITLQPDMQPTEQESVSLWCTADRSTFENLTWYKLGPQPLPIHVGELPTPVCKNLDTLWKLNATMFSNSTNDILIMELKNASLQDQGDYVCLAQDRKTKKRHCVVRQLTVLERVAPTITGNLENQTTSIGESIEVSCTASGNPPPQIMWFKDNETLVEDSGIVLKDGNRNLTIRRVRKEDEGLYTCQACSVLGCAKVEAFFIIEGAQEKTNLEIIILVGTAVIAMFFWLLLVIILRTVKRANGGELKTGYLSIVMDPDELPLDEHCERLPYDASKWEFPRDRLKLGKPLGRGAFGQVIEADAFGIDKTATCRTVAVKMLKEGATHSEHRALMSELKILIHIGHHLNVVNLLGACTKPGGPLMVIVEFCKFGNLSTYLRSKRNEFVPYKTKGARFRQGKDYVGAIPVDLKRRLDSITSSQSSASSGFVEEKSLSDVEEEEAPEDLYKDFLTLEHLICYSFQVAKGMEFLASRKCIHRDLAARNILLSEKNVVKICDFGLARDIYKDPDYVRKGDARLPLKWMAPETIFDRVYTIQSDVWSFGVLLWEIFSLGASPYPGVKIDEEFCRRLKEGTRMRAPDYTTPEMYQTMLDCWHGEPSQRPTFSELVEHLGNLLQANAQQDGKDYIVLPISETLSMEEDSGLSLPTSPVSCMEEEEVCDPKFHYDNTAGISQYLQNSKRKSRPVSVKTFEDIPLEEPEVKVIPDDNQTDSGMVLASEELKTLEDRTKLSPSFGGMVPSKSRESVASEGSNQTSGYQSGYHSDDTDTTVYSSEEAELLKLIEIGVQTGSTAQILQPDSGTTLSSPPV
T3 sequence (P11362 whole entry, change not shown): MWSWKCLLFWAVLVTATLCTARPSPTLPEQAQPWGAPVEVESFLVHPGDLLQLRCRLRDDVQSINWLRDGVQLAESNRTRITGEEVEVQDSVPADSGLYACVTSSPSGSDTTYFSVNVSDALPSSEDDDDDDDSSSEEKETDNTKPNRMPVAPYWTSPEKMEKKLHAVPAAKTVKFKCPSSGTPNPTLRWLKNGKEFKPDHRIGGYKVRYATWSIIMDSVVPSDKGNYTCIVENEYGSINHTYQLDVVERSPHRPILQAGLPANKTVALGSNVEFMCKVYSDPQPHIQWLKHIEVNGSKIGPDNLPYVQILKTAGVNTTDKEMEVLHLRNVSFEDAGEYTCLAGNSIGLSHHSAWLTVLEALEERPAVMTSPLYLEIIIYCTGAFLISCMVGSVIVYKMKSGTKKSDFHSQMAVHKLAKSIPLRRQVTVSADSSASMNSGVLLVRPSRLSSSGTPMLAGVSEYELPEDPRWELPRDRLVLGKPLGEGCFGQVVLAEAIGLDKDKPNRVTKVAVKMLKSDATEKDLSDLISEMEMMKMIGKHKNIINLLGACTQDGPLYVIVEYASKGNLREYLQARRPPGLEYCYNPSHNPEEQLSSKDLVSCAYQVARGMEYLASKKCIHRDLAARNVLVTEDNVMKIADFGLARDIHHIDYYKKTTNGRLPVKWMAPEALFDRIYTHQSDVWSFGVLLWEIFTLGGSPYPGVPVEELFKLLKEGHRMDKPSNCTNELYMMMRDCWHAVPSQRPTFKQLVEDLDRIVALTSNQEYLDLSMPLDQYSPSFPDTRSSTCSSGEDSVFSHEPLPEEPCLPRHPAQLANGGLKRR

For `COc1cc(OC)cc(N(CCNC(C)C)c2ccc3ncc(-c4cnn(C)c4)nc3n2)c1` [Compound 1], the “BAF3-KDR (MIN IL3) pIC50” value in assay [1] was 5.6. Also, the “BAF3-FGFR4 pIC50” value in assay [2] is on record as around 7.06. Besides, the IC50 is 251 nM in assay [3]; 25.1 nM in assay [5]; 5.01 nM in assay [6]; 5.01 nM in assay [7]; above 10000 nM in assay [9]; above 10000 nM in assay [10]. In addition, in [11] (FGFR 2 pIC50, enzymatic assay), the IC50 was 25.1 nM. In addition, the “BAF3-FGFR3 (MIN IL3) pIC50” value in assay [4] turned out to be 8.1. Also, the “BAF3-FGFR1 (MIN IL3) pIC50” value in assay [8] came out at 8.5.
Turning to `COc1cc(OC)c(F)c(N(CCNC(C)C)c2ccc3ncc(-c4cnn(C)c4)nc3n2)c1` [Compound 2], the “BAF3-KDR (MIN IL3) pIC50” value in assay [1] turned out to be 6.2. Moreover, the “BAF3-FGFR4 pIC50” value in assay [2] worked out at 7.64. Besides, the IC50 in [3] is 79.4 nM; in assay [5], 7.94 nM; in [6], 3.16 nM; in assay [7], 2 nM; in assay [9], above 10000 nM; in assay [10], above 10000 nM. For the same compound, the IC50 in assay [11] (setting [12]) was 5.01 nM. Moreover, the “BAF3-FGFR3 (MIN IL3) pIC50” value in [4] is 8.0. In addition, the “BAF3-FGFR1 (MIN IL3) pIC50” value in assay [8] turned out to be 8.3.
Take `COc1cc(OC)c(F)c(/N=c2\ccc3ncc(-c4cnn(C)c4)nc3n2CCNC(C)C)c1F` [Compound 6]: the “BAF3-KDR (MIN IL3) pIC50” value in [1] was 5.7. Also, the IC50 is 50.1 nM in [3]; 5.01 nM in assay [5]; 3.16 nM in assay [6]; 1 nM in [7]; above 10000 nM in assay [9] (setting [13]); above 10000 nM in assay [10] (setting [13]). For the same compound, in assay [11] (setting [12]), the IC50 was 5.01 nM. Further, the “BAF3-FGFR3 (MIN IL3) pIC50” value in assay [4] came to 7.6. For the same compound, the “BAF3-FGFR1 (MIN IL3) pIC50” value in assay [8] is 8.0.
Consider `COc1cc(OC)cc(N(CC(O)C(F)(F)F)c2ccc3ncc(-c4cnn(C)c4)nc3n2)c1` (stereo not shown) [Compound 8], for which, in assay [1], the “BAF3-KDR (MIN IL3) pIC50” value is on record as 5.3. In addition, in [2], the “BAF3-FGFR4 pIC50” value came to 6.66. Moreover, the IC50 is 126 nM in [3]; 3.16 nM in assay [5]; 2 nM in assay [6]; 1.26 nM in assay [7]; above 10000 nM in assay [9] (setting [13]); above 10000 nM in assay [10] (setting [13]). The IC50 in assay [11] (setting [12]) was 6.31 nM. Moreover, the “BAF3-FGFR3 (MIN IL3) pIC50” value in assay [4] is on record as 7.6. Also, the “BAF3-FGFR1 (MIN IL3) pIC50” value in assay [8] was 7.6.
For the compound `COc1cc(OC)c(F)c(N(Cc2ncccn2)c2ccc3ncc(-c4cnn(C)c4)nc3n2)c1F` [Compound 11], the “BAF3-KDR (MIN IL3) pIC50” value in assay [1] is listed as 6.3. For the same compound, the “BAF3-FGFR4 pIC50” value in assay [2] is given as around 7.02. Also, the IC50 is 398 nM in [3]; 20 nM in assay [5]; 7.08 nM in assay [6]; 50.1 nM in assay [7]; above 10000 nM in assay [9] (setting [13]); above 10000 nM in assay [10] (setting [13]). Also, in assay [11] (setting [12]), the IC50 is 50.1 nM. In assay [8], the “BAF3-FGFR1 (MIN IL3) pIC50” value amounted to 7.4.
Consider `COc1cc(OC)cc(N(Cc2ncccn2)c2ccc3ncc(-c4cnn(C)c4)nc3n2)c1` [Compound 12], for which the “BAF3-KDR (MIN IL3) pIC50” value in assay [1] was found to be 5.5. The “BAF3-FGFR4 pIC50” value in assay [2] is 6.26. The IC50 in assay [3] was 39.8 nM; in assay [5], 12.6 nM; in assay [6], 2.51 nM; in assay [7] it was 1.58 nM; in assay [9] (setting [13]) it was above 10000 nM; in assay [10] (setting [13]), above 10000 nM. In addition, in assay [11] (setting [12]), the IC50 was 3.98 nM. Further, the “BAF3-FGFR3 (MIN IL3) pIC50” value in [4] amounted to 7.1. For the same compound, the “BAF3-FGFR1 (MIN IL3) pIC50” value in assay [8] is given as 7.3.
On to `COc1cc(OC)cc(N(CCCO)c2ccc3ncc(-c4cnn(C)c4)nc3n2)c1` [Compound 18], for which the “BAF3-KDR (MIN IL3) pIC50” value in assay [1] is given as 5.5. Besides, the “BAF3-FGFR4 pIC50” value in assay [2] was around 6.64. Moreover, the IC50 in assay [3] is 50.1 nM; in assay [5], 3.16 nM; in assay [6] it was 1 nM; in [7] it was 2 nM; in assay [9] (setting [13]), above 10000 nM; in assay [10] (setting [13]), above 10000 nM. The IC50 in assay [11] (setting [12]) was 3.98 nM. For the same compound, the “BAF3-FGFR3 (MIN IL3) pIC50” value in assay [4] turned out to be 7.3. The “BAF3-FGFR1 (MIN IL3) pIC50” value in assay [8] stood at 7.4.
In the case of `COc1cc(/N=c2\ccc3ncc(-c4cnn(C)c4)nc3n2CCCO)cc(OC)c1` [Compound 19], in assay [1], the “BAF3-KDR (MIN IL3) pIC50” value was 6.4. In addition, the IC50 in assay [3] is 5.01 nM; in assay [5], 0.398 nM; in [6] it was 0.316 nM; in [7] it was 0.398 nM; in assay [9] (setting [13]), above 10000 nM; in assay [10] (setting [13]), above 10000 nM. Also, the IC50 in assay [11] (setting [12]) is 1.26 nM. The “BAF3-FGFR3 (MIN IL3) pIC50” value in [4] was found to be 8.0. Further, the “BAF3-FGFR1 (MIN IL3) pIC50” value in assay [8] amounted to 8.0.

(Values after patent publication US9309242B2, “Substituted pyrido[2,3-b]pyrazines as FGFR kinase inhibitors” (priority 2011, dated 2016).)
